Experimental data as given in article PMC4792962, “A unified mechanism for proteolysis and autocatalytic activation in the 20S proteasome” (Nature Communications, 2016).
Substitutions are numbered along the chain they refer to.

What was measured:
[1] = target: T1, yeast 20S proteasome core particle (yCP), β5 active site (ChT-L activity) (Saccharomyces cerevisiae, UniProt P23724+P30656, P30656:T76S); assay: fluorescence inhibition assay, Suc-LLVY-AMC; assay type: biochemical
T1 construct: gene PRE2; native 20S core particle purified from yeast (α7β7β7α7, 28 subunits), untagged; β5 mature after autocatalytic propeptide removal; in 'pp trans' mutants the β5 propeptide is expressed separately; with Proteasome subunit beta type-1; Proteasome subunit beta type-2; Proteasome subunit beta type-3; Proteasome subunit beta type-4; Proteasome subunit beta type-7; Proteasome subunit alpha type-1; Proteasome subunit alpha type-2; Proteasome subunit alpha type-3; Proteasome subunit alpha type-4; Proteasome subunit alpha type-5; Proteasome subunit alpha type-6; Probable proteasome subunit alpha type-7
T1 sequence (P30656 76-287 T76S): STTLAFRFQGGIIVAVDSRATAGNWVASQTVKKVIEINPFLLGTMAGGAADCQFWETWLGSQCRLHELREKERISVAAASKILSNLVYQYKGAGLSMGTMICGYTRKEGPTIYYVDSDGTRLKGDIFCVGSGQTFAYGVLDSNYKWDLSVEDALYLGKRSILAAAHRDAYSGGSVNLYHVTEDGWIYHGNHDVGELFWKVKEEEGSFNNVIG
T1 sequence (P23724 20-241): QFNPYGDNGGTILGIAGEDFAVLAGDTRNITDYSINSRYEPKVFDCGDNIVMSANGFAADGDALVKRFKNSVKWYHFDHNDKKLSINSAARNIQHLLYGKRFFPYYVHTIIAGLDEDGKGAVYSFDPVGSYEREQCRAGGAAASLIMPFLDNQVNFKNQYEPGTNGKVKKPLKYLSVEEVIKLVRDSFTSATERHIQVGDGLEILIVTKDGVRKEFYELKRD

[2] = target: T2, yeast 20S proteasome core particle (yCP), β5 active site (ChT-L activity) (Saccharomyces cerevisiae, UniProt P23724+P30656); assay: fluorescence inhibition assay, Suc-LLVY-AMC; assay type: biochemical
T2 construct: gene PRE2; native 20S core particle purified from yeast (α7β7β7α7, 28 subunits), untagged; β5 mature after autocatalytic propeptide removal; in 'pp trans' mutants the β5 propeptide is expressed separately; with Proteasome subunit beta type-1; Proteasome subunit beta type-2; Proteasome subunit beta type-3; Proteasome subunit beta type-4; Proteasome subunit beta type-7; Proteasome subunit alpha type-1; Proteasome subunit alpha type-2; Proteasome subunit alpha type-3; Proteasome subunit alpha type-4; Proteasome subunit alpha type-5; Proteasome subunit alpha type-6; Probable proteasome subunit alpha type-7
T2 sequence (P30656 76-287): T1 sequence (P30656 76-287 T76S) with S1T
T2 sequence (P23724 20-241): T1 sequence (P23724 20-241)

[3] = target: T3, yeast 20S proteasome core particle (yCP), β5 active site (ChT-L activity) (Saccharomyces cerevisiae, UniProt P23724+P30656, P30656:D243N); assay: X-ray crystal structure; assay type: binding; details: crystal soak; covalent (morpholine ring with Thr1)
T3 construct: gene PRE2; native 20S core particle purified from yeast (α7β7β7α7, 28 subunits), untagged; β5 mature after autocatalytic propeptide removal; in 'pp trans' mutants the β5 propeptide is expressed separately; with Proteasome subunit beta type-1; Proteasome subunit beta type-2; Proteasome subunit beta type-3; Proteasome subunit beta type-4; Proteasome subunit beta type-7; Proteasome subunit alpha type-1; Proteasome subunit alpha type-2; Proteasome subunit alpha type-3; Proteasome subunit alpha type-4; Proteasome subunit alpha type-5; Proteasome subunit alpha type-6; Probable proteasome subunit alpha type-7
T3 sequence (P30656 76-287 D243N): T1 sequence (P30656 76-287 T76S) with S1T, D168N
T3 sequence (P23724 20-241): T1 sequence (P23724 20-241)

[4] = target: T4, yeast 20S proteasome core particle (yCP), β5 active site (ChT-L activity) (Saccharomyces cerevisiae, UniProt P23724+P30656, P30656:K108A); assay: X-ray crystal structure; assay type: binding; details: propeptide expressed in trans, covalent
T4 construct: gene PRE2; native 20S core particle purified from yeast (α7β7β7α7, 28 subunits), untagged; β5 mature after autocatalytic propeptide removal; in 'pp trans' mutants the β5 propeptide is expressed separately; with Proteasome subunit beta type-1; Proteasome subunit beta type-2; Proteasome subunit beta type-3; Proteasome subunit beta type-4; Proteasome subunit beta type-7; Proteasome subunit alpha type-1; Proteasome subunit alpha type-2; Proteasome subunit alpha type-3; Proteasome subunit alpha type-4; Proteasome subunit alpha type-5; Proteasome subunit alpha type-6; Probable proteasome subunit alpha type-7
T4 sequence (P30656 76-287 K108A): T1 sequence (P30656 76-287 T76S) with S1T, K33A
T4 sequence (P23724 20-241): T1 sequence (P23724 20-241)

Row | Structure (SMILES) | IC50 [1] [nM] | IC50 [2] [nM] | X-ray crystal structure [3] | X-ray crystal structure [4]
1 | CC(C)C[C@H](NC(=O)[C@H](Cc1ccccc1)NC(=O)c1cnccn1)B(O)O [bortezomib] | 649 ± 176 | 174 ± 29 |  | 
2 | CC(C)C[C@H](NC(=O)[C@H](CCc1ccccc1)NC(=O)CN1CCOCC1)C(=O)N[C@@H](Cc1ccccc1)C(=O)N[C@@H](CC(C)C)C(=O)[C@@]1(C)CO1 [carfilzomib] |  |  | Soaking the β5-D166N crystals with carfilzomib and MG132 resulted in covalent modification of Thr1 | crystal structure of the β5-K33A pp trans mutant in complex with carfilzomib
